Assay results as given in patent publication US8716480B2, “7-aryl-1,2,4-triazolo[4,3-a]pyridine derivatives and their use as positive allosteric modulators of mGluR2 receptors” (Janssen Pharmaceuticals, Inc., priority 2009, dated 2014).
Where two headings read alike, the source gives them in different places. Marks after values point to notes of the source that are not given here.

Assays:
human mGluR2 receptor = molecular target: T1, human mGluR2 receptor (Homo sapiens, UniProt Q14416); experiment: [35S]GTPγS binding assay (PAM); assay type: biochemical; settings: in presence of glutamate at predetermined EC20, membranes from CHO cells transfected with human mGluR2; for EC50: read-out: GTPγS -hR2 PAM pEC50 (converted)
T1 construct: expressed in transfected cells; host or cells: CHO cells (membranes)
T1 sequence (Q14416 19-872): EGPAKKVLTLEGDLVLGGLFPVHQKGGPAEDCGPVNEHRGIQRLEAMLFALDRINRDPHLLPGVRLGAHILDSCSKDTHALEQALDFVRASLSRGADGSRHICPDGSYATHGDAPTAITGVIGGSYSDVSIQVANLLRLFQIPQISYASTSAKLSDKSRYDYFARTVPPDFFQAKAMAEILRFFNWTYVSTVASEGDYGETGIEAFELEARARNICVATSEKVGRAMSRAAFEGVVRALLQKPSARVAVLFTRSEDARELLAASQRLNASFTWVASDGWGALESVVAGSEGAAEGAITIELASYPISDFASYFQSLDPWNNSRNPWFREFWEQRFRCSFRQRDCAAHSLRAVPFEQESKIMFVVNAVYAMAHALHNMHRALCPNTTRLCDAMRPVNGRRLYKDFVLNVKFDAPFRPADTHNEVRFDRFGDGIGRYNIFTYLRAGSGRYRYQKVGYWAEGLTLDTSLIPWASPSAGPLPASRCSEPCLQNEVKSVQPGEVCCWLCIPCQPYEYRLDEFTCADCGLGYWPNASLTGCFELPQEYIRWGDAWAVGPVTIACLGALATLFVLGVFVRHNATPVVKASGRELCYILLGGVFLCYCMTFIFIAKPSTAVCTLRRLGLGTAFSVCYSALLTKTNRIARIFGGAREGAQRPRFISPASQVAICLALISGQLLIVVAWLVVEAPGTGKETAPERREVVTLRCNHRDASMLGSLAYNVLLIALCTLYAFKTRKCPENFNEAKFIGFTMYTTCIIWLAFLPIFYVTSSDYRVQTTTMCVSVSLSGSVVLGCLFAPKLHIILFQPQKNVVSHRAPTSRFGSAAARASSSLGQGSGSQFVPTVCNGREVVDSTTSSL
Method: [^35S]GTPγS binding assay
The [^35S]GTPγS binding assay is a functional membrane-based assay used to study G-protein coupled receptor (GPCR) function whereby incorporation of a non-hydrolysable form of GTP, [^35S]GTPγS (guanosine 5′-triphosphate, labelled with […] ^35S), is measured.
CHO-cells were cultured to pre-confluence and stimulated with 5 mM butyrate for 24 h, prior to washing in PBS, and then collected by scraping in homogenisation buffer (50 mM Tris-HCl buffer, pH 7.4, 4° C.). Cell lysates were homogenized briefly using an ultra-turrax homogenizer. The homogenate was centrifuged at 16,000 RPM (Sorvall RC-5C plus rotor SS-34) for 10 minutes and the supernatant discarded. The pellet was resuspended in 5 mM Tris-HCl, pH 7.4 and centrifuged again (18,000 RPM, 20 min, 4° C.). The final pellet was resuspended in 50 mM Tris-HCl, pH 7.4 and stored at −80° C. in appropriate aliquots before use. Protein concentration was determined by the Bradford method (Bio-Rad, USA) with bovine serum albumin as standard.
Measurement of mGluR2 positive allosteric modulatory activity of test compounds was performed as follows. Test compounds and glutamate were diluted in assay buffer containing 10 mM HEPES acid, 10 mM HEPES salt, pH 7.4, 100 mM NaCl, 3 mM MgCl2 and 10 μM GDP. Human mGlu2 receptor-containing membranes were thawed on ice and diluted in assay buffer supplemented with 14 μg/ml saponin. Membranes were pre-incubated with compound alone or together with a predefined (˜EC20) concentration of glutamate (PAM assay) for 30 min at 30° C. After addition of [^35S]GTPγS (f.c. 0.1 nM) microplates were shaken briefly and further incubated to allow [^35S]GTPγS incorporation on activation (30 minutes, 30° C.). Final assay mixtures contained 7 μg of membrane protein in 10 mM HEPES acid, 10 mM HEPES salt, pH 7.4, 100 mM NaCl, 3 mM MgCl2, 10 μM GDP and 10 μg/ml saponin. Total reaction volume was […] Reactions were terminated by rapid filtration through Unifilter-96 GF/B filter plates (Packard, Meriden, Conn.) using a 96-well Packard filtermate harvester. Filters were washed 6 times with ice-cold 10 mM NaH2PO4/10 mM Na2HPO4, pH 7.4. Filters were then air-dried, and 40 μl of liquid scintillation cocktail (Microscint-O) was added to each well. Membrane-bound radioactivity was counted in a Microplate Scintillation and Luminescence Counter from Packard.
obtained in the presence of EC20 of mGluR2 agonist glutamate to determine positive allosteric modulation (PAM)—were generated using the Lexis software interface (developed at J&J). Data were calculated as % of the control glutamate response, defined as the maximal response that is generated upon addition of glutamate alone. Sigmoid concentration-response curves plotting these percentages versus the log concentration of the test compound were analyzed using non-linear regression analysis. The concentration producing half-maximal effect is then calculated as EC50.
All compounds were tested in presence of mGluR2 agonist, glutamate at a predetermined EC20 concentration, to determine positive allosteric modulation (GTPγS-PAM). pEC50 values were calculated from a concentration-response experiment of at least 10 concentrations.

male NMRI mice = experiment: Phencyclidine (PCP)-induced hyperlocomotion in mice; assay type: in vivo; settings: for ED50: Mus musculus; for ED50 PCP-Inh. (estimated): estimated ED50 (n = 3 per dose; 4-fold separation between doses)
Method: On the day of experiments, the mice were brought into the procedural room. They were housed individually and allowed to acclimate for at least a half hour prior to testing. Although the studies were conducted during the light cycle (from 8:00 to 16:00 h), the procedure room was only sparsely lit (3 to 30 LUX) to provide better contrast for the video tracking. Local lighting was used for the injection procedures. During each trial, an individual mouse was placed in an open field arena (grey PVC cylinder with a height of 40 cm and a diameter of 22.5 cm). Each arena was placed on an infrared LED (8×8 LEDs)-lit box (white PVC squared box; 40×40 cm^2; height 12.5 cm). Each mouse was placed in the center of the arena and allowed to explore freely for 30 min. After each trial, the arena was cleaned with a wet and subsequently with a dry cleaning cloth. An infrared sensitive tube camera and a white light source (in arena: 4-7 LUX) were mounted to the ceiling above the observation chamber to record and input activity to a computer. Animal behavior was recorded and analyzed using the Noldus Ethovision XT Video Tracking System (Version 3.1; Noldus, Wageningen, The Netherlands). The total distance traveled (cm) was calculated. Data were then exported to data management systems for further analysis and reporting.
Test compound or solvent was administered at a pre-defined time before measurement (standard: 30 min) to male NMRI mice that were challenged with phencyclidine (PCP; 5 mg/kg, s.c.) 30 min before measurement. Activity was measured for a period of 30 min.

Male mice (C57BL/6) = experiment: Reversal of memantine-induced brain activation ([14C]2DG uptake) in mice; assay type: in vivo; settings: for L.A.D. (lowest active dose) for significant (p<0.05) reduction of 2DG uptake in the hippocampus compared to memantine response: mice, s.c., memantine 20 mg/kg s.c.
Method: Reversal of Memantine-Induced Brain Activation in Mice NMDA receptor hypofunction is hypothesized to be involved in schizophrenia.
Autoradiographic assessment of radiolabeled [^14C]-2-deoxyglucose ([^14C]2DG) uptake is commonly used to investigate brain activation. In humans, cerebral blood flow is increased in specific brain regions after administration of a subanaesthetic dose of ketamine.
Male mice (C57BL/6, weight 24-28 g, fasted overnight; n=10 animals per group) were treated with vehicle or test compound (s.c.) in randomized order (t=0 min). Memantine (20 mg/kg, s.c.) was injected 30 min later (t=30 min). At t=45 min, [^14C]2DG (0.16 μCi/g) was administered intraperitoneally (i.p.), followed by a 45 min uptake period. Animals were decapitated (t=90 min), plasma glucose levels measured, the brain removed, rapidly frozen and stored at −20° C. until sectioned. Brain sections were exposed together to a precalibrated [^14C]standard on film, which was developed after four days of exposure. Local tissue [^14C]concentration (nCi/mg tissue equivalent—TEQ-) in each region of interest was determined.
Data was analyzed statistically using a two-way ANOVA analysis followed by post-hoc tests (memantine response versus reversal by the compound). The results are shown in table 5 below, expressed as lowest active dose (L.A.D.) required to exert a statistically significant (p<0.05) reduction of 2DG uptake in the hippocampus compared to memantine response.

male Wiga Wistar rats = experiment: Conditioned avoidance response (CAR) test; assay type: in vivo; settings: for ED50: Rattus norvegicus, po
Excerpt: The apparatus consisted of an inner box surrounded by an outer box. The inner box was composed of four walls of transparent, synthetic material (length×width×height: 30×30×30 cm), an open top, and a grid floor made of 15 pairs of iron bars (2 mm diameter; 6 mm inter-bar distance). Odd and even bars were connected with a source of alternative current (1.0 mA; Coulbourn Instruments Solid State Shocker/Distributor), which could be interrupted by a switch. The outer box was composed of the same material (length×width×height: 40×40×36 cm), also with an open top, with a distance of 5 cm between the inner and outer box on all sides. To decrease the amount of environmental stimuli, three walls of the outer box were made non-transparent. The front wall was left transparent to allow the necessary inspection of the animal during the test. The upper edge of the outer and inner box served as a target for the rats on which to jump with fore- and hind-paws, respectively.
From their arrival in the laboratory on the experimental day, male Wiga Wistar rats (230±30 g) were housed in individual cages provided with bedding material.
Latency to avoidance was recorded. The median avoidance response obtained over the three experimental sessions for each rat were used for further calculations.

[1] = sc, read-out: ED50 PCP-Inh. (estimated)
[2] = mice, PCP 5 mg/kg s.c., criterion total distance <5500 counts, not marked as oral, read-out: ED50 PCP-Inh.
[3] = compound administered orally, criterion median avoidance latency >8 s, read-out: ED50 CAR-Inh.
[4] = compound administered orally, criterion median avoidance latency >8 s

SMILES	EC50 (human mGluR2 receptor) [nM]	L.A.D. (lowest active dose) for significant (p<0.05) reduction of 2DG uptake in the hippocampus compared to memantine response (Male mice (C57BL/6))	melting point [°C]	ED50 (male NMRI mice; [2]) [mg/kg]	GTPγS -hR2 PAM pEC50 (human mGluR2 receptor)	other results
Fc1cc(-c2ccn3c(CC4CC4)nnc3c2C(F)(F)F)ccc1Oc1ccnc(C2CC2)c1 [Co. No. 46, 3-Cyclopropylmethyl-7-[4-(2-cyclopropyl-pyridin-4-yloxy)-3-fluoro-phenyl]-8-trifluoromethyl-[1,2,4]triazolo[4,3-a]pyridine]	17.8	≦10 mg/kg	211.1			ED50 (male NMRI mice; [1]): 20 mg/kg
Cc1ccc(Oc2ccc(-c3ccn4c(CC(F)(F)F)nnc4c3Cl)cc2F)c(C)n1 [Co. No. 3, 7-[3-Fluoro-4-(2′,6′-dimethyl-pyridin-3-yloxy)-phenyl]-8-chloro-3-(2,2,2-trifluoro-ethyl)-1,2,4-triazolo[4,3-a]pyridine]	45.7		164.5	16.2		ED50 (male Wiga Wistar rats; [3]): 24.6 mg/kg; ED50 (male Wiga Wistar rats; not marked as oral, criterion median avoidance latency >8 s, read-out: ED50 CAR-Inh.): 18.6 mg/kg
Cc1ccc(Oc2ccc(-c3ccn4c(CC5CC5)nnc4c3C(F)(F)F)cc2F)c(C)n1 [Co. No. 4]	10.2	≦10 mg/kg		15.2		ED50 (male Wiga Wistar rats; compound administered orally, estimated ED50 (n = 3 per dose; 4-fold separation between doses), read-out: ED50 CAR-Inh. (estimated)): 20 mg/kg; ED50 (male Wiga Wistar rats; not marked as oral, estimated ED50 (n = 3 per dose; 4-fold separation between doses), read-out: ED50 CAR-Inh. (estimated)): 7.9 mg/kg
Cc1ccc(Oc2ccc(-c3ccn4c(CC5CC5)nnc4c3Cl)cc2F)c(C)n1 [Co. No. 14, 8-Chloro-3-cyclopropylmethyl-7-{4-[(2,6-dimethylpyridin-3-yl)oxy]-3-fluorophenyl}[1,2,4]triazolo[4,3-a]pyridine]	42.7		207.2	18		ED50 (male Wiga Wistar rats; [3]): 24.6 mg/kg
CCc1cc(Oc2ccc(-c3ccn4c(CC5CC5)nnc4c3Cl)cc2F)ccn1 [Co. No. 48, 3-Cyclopropylmethyl-7-[4-(2-ethyl-pyridin-4-yloxy)-3-fluoro-phenyl]-8-chloro-[1,2,4]triazolo[4,3-a]pyridine]	145	≦10 mg/kg	> 300			ED50 (male NMRI mice; [1]): 12.6 mg/kg
Fc1cnccc1Oc1ccc(-c2ccn3c(CC4CC4)nnc3c2C(F)(F)F)cc1 [Co. No. 63]					7.03	ED50 PCP-Inh. (estimated) (male NMRI mice; mice, PCP 5 mg/kg s.c.): 1.58^a) mg/kg
CCOCc1nnc2c(C)c(-c3ccc(Oc4ccc(C)nc4C)c(F)c3)ccn12 [Co. No. 42, 8-Methyl-3-ethoxymethyl-7-{3-fluoro-4-[(2,6-dimethylpyridin-3-yl)oxy]phenyl}[1,2,4]triazolo[4,3-a]pyridine]	170	5 mg/kg	144			ED50 (male NMRI mice; [1]): 20 mg/kg
FC(F)(F)c1c(-c2ccc(Oc3ccnc(C4CC4)c3)c(Cl)c2)ccn2c(CC3CC3)nnc12 [Co. No. 54]					8.38	ED50 CAR-Inh. (male Wiga Wistar rats; [4]): >40* mg/kg
Cc1cc(Oc2ccc(-c3ccn4c(CC5CC5)nnc4c3Cl)cc2F)ccn1 [Co. No. 15]		≦10 mg/kg			6.65	ED50 PCP-Inh. (male NMRI mice; mice, PCP 5 mg/kg s.c., criterion total distance <5500 counts, not marked as oral): 20 mg/kg; ED50 CAR-Inh. (male Wiga Wistar rats; [4]): ≧40*^ mg/kg
COc1ccc(CNc2ccc(-c3ccn4c(CC5CC5)nnc4c3C(F)(F)F)cc2)cn1 [Co. No. 58]					7.90	ED50 CAR-Inh. (male Wiga Wistar rats; [4]): ≧40*^ mg/kg
FC(F)(F)Cc1nnc2c(Cl)c(-c3ccc(OC4CCOCC4)c(Cl)c3)ccn12 [Co. No. 7, 7-(3-Chloro-4-pyranyl-4-oxy-phenyl)-8-chloro-3-(2,2,2-trifluoro-ethyl)-1,2,4-triazolo[4,3-a]pyridine]	174		186.7	10		
FC(F)(F)c1c(-c2ccc(N3CCNCC3)c(Cl)c2)ccn2c(CC3CC3)nnc12 [Co. No. 73]					6.59	ED50 PCP-Inh. (estimated) (male NMRI mice; mice, PCP 5 mg/kg s.c.): 12.6^a) mg/kg
O=C(CCCN1CCC(O)(c2ccc(Cl)cc2)CC1)c1ccc(F)cc1 [haloperidol, reference compound]						effect on memantine-induced brain glucose metabolism / 2DG uptake (in words) (Male mice (C57BL/6); mouse brain): inactive
